Where two headings read alike, the source gives them in different places.
Assay: Multiple ascending dose (MAD) study: multiple-dose pharmacokinetics
Assay type: in vivo, human
Settings: for concentration at 120 h: Day 6, 0 hr post-dose (120 h); for concentration at 120 h / concentration at 132 h / concentration at 144 h / concentration at 156 h / concentration at 168 h / concentration at 192 h / concentration at 288 h / concentration at 300 h / concentration at 312 h / concentration at 324 h: read-out: Pre-dose (trough) plasma concentration, Mean; for concentration at 132 h: Day 6, 12 hr post-dose (132 h); for concentration at 144 h: Day 7, 0 hr post-dose (144 h); for concentration at 156 h: Day 7, 12 hr post-dose (156 h); for concentration at 168 h: Day 8, 0 hr post-dose (168 h); for concentration at 192 h: Day 9, 0 hr post-dose (192 h); for concentration at 288 h: Day 13, 0 hr post-dose (288 h); for concentration at 300 h: Day 13, 12 hr post-dose (300 h); for concentration at 312 h: Day 14, 0 hr post-dose (312 h); for concentration at 324 h: Day 14, 12 hr post-dose (324 h); for concentration at 12 h / concentration at 12 hr: all 12 hr (evening) troughs, read-out: Mean C(12), steady-state trough
Protocol: A multiple ascending dose (MAD) study of Compound 1 with two additional single-dose cohorts was also completed. […] Secondary objectives included evaluation of the pharmacokinetic (PK) profile and the relationship between Compound 1 PK and pharmacodynamic (PD) characteristics, that is, the inhibition of complement alternative pathway (AP) activity (PK/PD). In the MAD study, multiple-dose pharmacokinetics and pharmacodynamics of Compound 1 were evaluated in four dose groups administered Compound 1 (40, 80, 120 and 200 mg BID) in the fasted state for 14-days (Table 3). Eight subjects received active drug in each group; eight subjects received placebo in the first dose group (40 mg) and two subjects received placebo in each of the other three dose groups. Two additional cohorts were administered Compound 1 at single doses of 240 mg (fasted subjects) and 120 mg (fed subjects) (Table 3). The two single-dose cohorts each comprised six subjects receiving active drug and two subjects receiving placebo. Plasma and serum samples for PK and PD assessment were collected on selected days prior to dosing (at local troughs), and on days 1, 7, and 14 at 0.5-hour to 2-hour intervals for more detailed assessment.

[1] = human, plasma, oral, 80 mg, 80 mg BID
[2] = human, plasma, oral, 120 mg, 120 mg BID
[3] = human, plasma, oral, 200 mg, 200 mg BID

SMILES: CC(=O)c1nn(CC(=O)N2[C@H](C(=O)Nc3nc(Br)ccc3C)C[C@@]3(C)C[C@@H]23)c2ccc(-c3cnc(C)nc3)cc12 [Compound 1, (1R,3S,5R)-2-(2-(3-acetyl-5-(2-methylpyrimidin-5-yl)-1H-indazol-1-yl)acetyl)-N-(6-bromo-3-methylpyridin-2-yl)-5-methyl-2-azabicyclo[3.1.0]hexane-3-carboxamide]
- Mean pre-dose concentrations at steady-state, range (40 mg BID): 15.6 to 23.5 ng/mL
- Mean pre-dose concentrations at steady-state, range (80 mg BID): 45.9 to 83.7 ng/mL
- Mean pre-dose concentrations at steady-state, range (120 mg BID): 80.6 to 153 ng/mL
- Mean pre-dose concentrations at steady-state, range (200 mg BID): 247 to 392 ng/mL
- concentration at 120 h (human, plasma, oral, 40 mg BID): 0.0278 µg/mL
- concentration at 132 h (human, plasma, oral, 40 mg BID): 0.0179 µg/mL
- concentration at 144 h (human, plasma, oral, 40 mg BID): 0.0243 µg/mL
- concentration at 156 h (human, plasma, oral, 40 mg BID): 0.0157 µg/mL
- concentration at 168 h (human, plasma, oral, 40 mg BID): 0.0278 µg/mL
- concentration at 192 h (human, plasma, oral, 40 mg BID): 0.0269 µg/mL
- concentration at 288 h (human, plasma, oral, 40 mg BID): 0.0235 µg/mL
- concentration at 300 h (human, plasma, oral, 40 mg BID): 0.0154 µg/mL
- concentration at 312 h (human, plasma, oral, 40 mg BID): 0.0252 µg/mL
- concentration at 324 h (human, plasma, oral, 40 mg BID): 0.0162 µg/mL
- concentration at 12 h (human, plasma, oral, 40 mg BID): 0.0156 µg/mL
- Tmax (human, plasma, oral, 40 mg, 40 mg BID × 14 Days, Day 1): 1.56 h
- AUC(0-t) (human, plasma, oral, 40 mg, 40 mg BID × 14 Days, Day 1, read-out: AUC(0-12), Mean): 0.392 µg·h/mL
- Cmax (human, plasma, oral, 40 mg, 40 mg BID × 14 Days, Day 1, read-out: Cmax, Mean): 0.107 µg/mL
- Tmax (human, plasma, oral, 40 mg, 40 mg BID × 14 Days, Day 7): 1.8 h
- AUC(0-t) (human, plasma, oral, 40 mg, 40 mg BID × 14 Days, Day 7, read-out: AUC(0-12), Mean): 0.741 µg·h/mL
- AUC(0-t) (human, plasma, oral, 40 mg, 40 mg BID × 14 Days, Day 7, read-out: AUC(0-24), Mean): 1.48 µg·h/mL
- Cmax (human, plasma, oral, 40 mg, 40 mg BID × 14 Days, Day 7, read-out: Cmax, Mean): 0.169 µg/mL
- Tmax (human, plasma, oral, 40 mg, 40 mg BID × 14 Days, Day 14): 1.58 h
- AUC(0-t) (human, plasma, oral, 40 mg, 40 mg BID × 14 Days, Day 14, read-out: AUC(0-12), Mean): 0.732 µg·h/mL
- AUC(0-t) (human, plasma, oral, 40 mg, 40 mg BID × 14 Days, Day 14, read-out: AUC(0-24), Mean): 1.46 µg·h/mL
- Cmax (human, plasma, oral, 40 mg, 40 mg BID × 14 Days, Day 14, read-out: Cmax, Mean): 0.156 µg/mL
- concentration at 156 h (human, plasma, oral, 80 mg BID): 0.0437 µg/mL
- concentration at 168 h (human, plasma, oral, 80 mg BID): 0.109 µg/mL
- concentration at 192 h (human, plasma, oral, 80 mg BID): 0.102 µg/mL
- concentration at 288 h (human, plasma, oral, 80 mg BID): 0.0633 µg/mL
- concentration at 300 h (human, plasma, oral, 80 mg BID): 0.0452 µg/mL
- concentration at 312 h (human, plasma, oral, 80 mg BID): 0.085 µg/mL
- Tmax (human, plasma, oral, 80 mg, 80 mg BID × 14 Days, Day 1): 1.79 h
- AUC(0-t) (human, plasma, oral, 80 mg, 80 mg BID × 14 Days, Day 1, read-out: AUC(0-12), Mean): 0.856 µg·h/mL
- Cmax (human, plasma, oral, 80 mg, 80 mg BID × 14 Days, Day 1, read-out: Cmax, Mean): 0.207 µg/mL
- Tmax (human, plasma, oral, 80 mg, 80 mg BID × 14 Days, Day 7): 2 h
- AUC(0-t) (human, plasma, oral, 80 mg, 80 mg BID × 14 Days, Day 7, read-out: AUC(0-12), Mean): 1.99 µg·h/mL
- AUC(0-t) (human, plasma, oral, 80 mg, 80 mg BID × 14 Days, Day 7, read-out: AUC(0-24), Mean): 3.99 µg·h/mL
- Cmax (human, plasma, oral, 80 mg, 80 mg BID × 14 Days, Day 7, read-out: Cmax, Mean): 0.472 µg/mL
- Tmax (human, plasma, oral, 80 mg, 80 mg BID × 14 Days, Day 14): 2.14 h
- AUC(0-t) (human, plasma, oral, 80 mg, 80 mg BID × 14 Days, Day 14, read-out: AUC(0-12), Mean): 1.98 µg·h/mL
- AUC(0-t) (human, plasma, oral, 80 mg, 80 mg BID × 14 Days, Day 14, read-out: AUC(0-24), Mean): 3.97 µg·h/mL
- Cmax (human, plasma, oral, 80 mg, 80 mg BID × 14 Days, Day 14, read-out: Cmax, Mean): 0.453 µg/mL
- concentration at 120 h [1]: 0.0738 µg/mL
- concentration at 132 h [1]: 0.0521 µg/mL
- concentration at 144 h [1]: 0.0691 µg/mL
- concentration at 324 h [1]: 0.0425 µg/mL
- concentration at 12 hr [1]: 0.0459 µg/mL
- concentration at 12 h (human, plasma, oral, 120 mg BID): ~0.08 µg/mL
- Tmax (human, plasma, oral, 120 mg, 120 mg BID × 14 Days, Day 1): 2 h
- AUC(0-t) (human, plasma, oral, 120 mg, 120 mg BID × 14 Days, Day 1, read-out: AUC(0-12), Mean): 1.2 µg·h/mL
- Cmax (human, plasma, oral, 120 mg, 120 mg BID × 14 Days, Day 1, read-out: Cmax, Mean): 0.353 µg/mL
- Tmax (human, plasma, oral, 120 mg, 120 mg BID × 14 Days, Day 7): 1.75 h
- AUC(0-t) (human, plasma, oral, 120 mg, 120 mg BID × 14 Days, Day 7, read-out: AUC(0-12), Mean): 3.88 µg·h/mL
- AUC(0-t) (human, plasma, oral, 120 mg, 120 mg BID × 14 Days, Day 7, read-out: AUC(0-24), Mean): 7.75 µg·h/mL
- Cmax (human, plasma, oral, 120 mg, 120 mg BID × 14 Days, Day 7, read-out: Cmax, Mean): 0.885 µg/mL
- Tmax (human, plasma, oral, 120 mg, 120 mg BID × 14 Days, Day 14): 2.5 h
- AUC(0-t) (human, plasma, oral, 120 mg, 120 mg BID × 14 Days, Day 14, read-out: AUC(0-12), Mean): 3.99 µg·h/mL
- AUC(0-t) (human, plasma, oral, 120 mg, 120 mg BID × 14 Days, Day 14, read-out: AUC(0-24), Mean): 7.99 µg·h/mL
- Cmax (human, plasma, oral, 120 mg, 120 mg BID × 14 Days, Day 14, read-out: Cmax, Mean): 0.887 µg/mL
- concentration at 120 h [2]: 0.165 µg/mL
- concentration at 132 h [2]: 0.0906 µg/mL
- concentration at 144 h [2]: 0.125 µg/mL
- concentration at 156 h [2]: 0.0672 µg/mL
- concentration at 168 h [2]: 0.164 µg/mL
- concentration at 192 h [2]: 0.156 µg/mL
- concentration at 288 h [2]: 0.136 µg/mL
- concentration at 300 h [2]: 0.088 µg/mL
- concentration at 312 h [2]: 0.173 µg/mL
- concentration at 324 h [2]: 0.0766 µg/mL
- Cmax (human, plasma, oral, 120 mg, 120 mg BID, read-out: Cmax): < 1 µg/mL
- Tmax (human, plasma, oral, 200 mg, 200 mg BID × 14 Days, Day 1): 1.63 h
- AUC(0-t) (human, plasma, oral, 200 mg, 200 mg BID × 14 Days, Day 1, read-out: AUC(0-12), Mean): 1.82 µg·h/mL
- Cmax (human, plasma, oral, 200 mg, 200 mg BID × 14 Days, Day 1, read-out: Cmax, Mean): 0.44 µg/mL
- Tmax (human, plasma, oral, 200 mg, 200 mg BID × 14 Days, Day 7): 2.06 h
- AUC(0-t) (human, plasma, oral, 200 mg, 200 mg BID × 14 Days, Day 7, read-out: AUC(0-12), Mean): 9.35 µg·h/mL
- AUC(0-t) (human, plasma, oral, 200 mg, 200 mg BID × 14 Days, Day 7, read-out: AUC(0-24), Mean): 18.7 µg·h/mL
- Cmax (human, plasma, oral, 200 mg, 200 mg BID × 14 Days, Day 7, read-out: Cmax, Mean): 1.87 µg/mL
- Tmax (human, plasma, oral, 200 mg, 200 mg BID × 14 Days, Day 14): 1.81 h
- AUC(0-t) (human, plasma, oral, 200 mg, 200 mg BID × 14 Days, Day 14, read-out: AUC(0-12), Mean): 8.24 µg·h/mL
- AUC(0-t) (human, plasma, oral, 200 mg, 200 mg BID × 14 Days, Day 14, read-out: AUC(0-24), Mean): 16.5 µg·h/mL
- Cmax (human, plasma, oral, 200 mg, 200 mg BID × 14 Days, Day 14, read-out: Cmax, Mean): 1.63 µg/mL
- concentration at 120 h [3]: 0.431 µg/mL
- concentration at 132 h [3]: 0.241 µg/mL
- concentration at 144 h [3]: 0.385 µg/mL
- concentration at 156 h [3]: 0.241 µg/mL
- concentration at 168 h [3]: 0.381 µg/mL
- concentration at 192 h [3]: 0.377 µg/mL
- concentration at 288 h [3]: 0.376 µg/mL
- concentration at 300 h [3]: 0.272 µg/mL
- concentration at 312 h [3]: 0.415 µg/mL
- concentration at 324 h [3]: 0.235 µg/mL
- concentration at 12 hr [3]: 0.247 µg/mL
- Cmax (human, plasma, oral, 200 mg, 200 mg BID, read-out: Cmax): < 2 µg/mL
- C0 at 0 h (human, plasma, oral, 40 mg BID, all 0 hr (morning) troughs, read-out: Mean C(0), steady-state trough): 0.0234 µg/mL
- C0 at 0 hr (human, plasma, oral, 80 mg BID, all 0 hr (morning) troughs, read-out: Mean C(0), steady-state trough): 0.0837 µg/mL
- C0 at 0 hr (human, plasma, oral, 120 mg BID, all 0 hr (morning) troughs, read-out: Mean C(0), steady-state trough): 0.153 µg/mL
- C0 at 0 hr (human, plasma, oral, 200 mg BID, all 0 hr (morning) troughs, read-out: Mean C(0), steady-state trough): 0.392 µg/mL
- diurnal metabolic pattern (humans, BID dosing, C(0) morning vs C(12) evening): exhibits a diurnal metabolic pattern

Source: patent publication US12239645B2, “Targeted dosing for the treatment of complement mediated disorders” (Achillion Pharmaceuticals, Inc., priority 2018, dated 2025)
